Our source for the IC50 and Ki values is ChEMBL document CHEMBL1909046, “DrugMatrix in vitro pharmacology data”.

For orientation: IC50 means the midpoint of a concentration-inhibition curve. The Ki is a measure of affinity in units of concentration, obtained from inhibition or displacement.

Data set [1] can be described thus: DRUGMATRIX: Sigma2 radioligand binding (ligand: [3H] Ifenprodil). The class given is cell membranes, Rattus norvegicus, Wistar, Brain, Membrane. The note with it: Not Active = under 50% inhibition at 10 µM.
The nature of data set [2]: DRUGMATRIX: Imidazoline I2, Central radioligand binding (ligand: [3H] Idazoxan). Format: cell membranes, Rattus norvegicus, Wistar, Cerebral cortex, Membrane. The settings on record: Not Active = under 50% inhibition at 10 µM.
Data set [3] can be described thus: DRUGMATRIX: Phosphodiesterase PDE3 enzyme inhibition (substrate: [3H]cAMP + cAMP). Format: tissue-based, Homo sapiens. The note with it: platelet; Not Active = under 50% inhibition at 10 µM.
For the next data set, the target named is T1, Interstitial collagenase (Homo sapiens, UniProt P03956).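 Also: MMP-1 enzyme inhibition assay using a peptide substrate; in other assays of this panel Not Active means under 50% inhibition at 10 µM.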
T1 sequence (P03956 whole entry): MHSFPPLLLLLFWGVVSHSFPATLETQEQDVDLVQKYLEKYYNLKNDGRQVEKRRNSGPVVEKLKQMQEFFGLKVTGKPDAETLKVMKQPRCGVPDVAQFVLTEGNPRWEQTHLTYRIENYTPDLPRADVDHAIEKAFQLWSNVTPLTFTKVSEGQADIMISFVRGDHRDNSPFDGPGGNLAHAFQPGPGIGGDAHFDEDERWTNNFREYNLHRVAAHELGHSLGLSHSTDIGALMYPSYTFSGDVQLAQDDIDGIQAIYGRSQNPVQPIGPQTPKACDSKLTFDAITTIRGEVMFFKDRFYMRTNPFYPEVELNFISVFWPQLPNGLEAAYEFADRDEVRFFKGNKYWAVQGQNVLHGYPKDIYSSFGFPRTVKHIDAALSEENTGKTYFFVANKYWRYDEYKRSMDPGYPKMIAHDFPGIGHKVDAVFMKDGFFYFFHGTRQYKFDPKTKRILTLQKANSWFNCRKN
Put plainly: biochemical. Format: tissue-based, Rheumatoid synovial fibroblasts.

The target in data set [4] is Epidermal growth factor receptor (Homo sapiens, UniProt P00533). Kind of data set: DRUGMATRIX: Protein Tyrosine Kinase, EGF Receptor enzyme inhibition (substrate: Poly(Glu:Tyr)). The class given is cell-based, Insect cells. The settings on record: insect cells; Not Active = under 50% inhibition at 10 µM.
Sequence of Epidermal growth factor receptor (P00533 whole entry): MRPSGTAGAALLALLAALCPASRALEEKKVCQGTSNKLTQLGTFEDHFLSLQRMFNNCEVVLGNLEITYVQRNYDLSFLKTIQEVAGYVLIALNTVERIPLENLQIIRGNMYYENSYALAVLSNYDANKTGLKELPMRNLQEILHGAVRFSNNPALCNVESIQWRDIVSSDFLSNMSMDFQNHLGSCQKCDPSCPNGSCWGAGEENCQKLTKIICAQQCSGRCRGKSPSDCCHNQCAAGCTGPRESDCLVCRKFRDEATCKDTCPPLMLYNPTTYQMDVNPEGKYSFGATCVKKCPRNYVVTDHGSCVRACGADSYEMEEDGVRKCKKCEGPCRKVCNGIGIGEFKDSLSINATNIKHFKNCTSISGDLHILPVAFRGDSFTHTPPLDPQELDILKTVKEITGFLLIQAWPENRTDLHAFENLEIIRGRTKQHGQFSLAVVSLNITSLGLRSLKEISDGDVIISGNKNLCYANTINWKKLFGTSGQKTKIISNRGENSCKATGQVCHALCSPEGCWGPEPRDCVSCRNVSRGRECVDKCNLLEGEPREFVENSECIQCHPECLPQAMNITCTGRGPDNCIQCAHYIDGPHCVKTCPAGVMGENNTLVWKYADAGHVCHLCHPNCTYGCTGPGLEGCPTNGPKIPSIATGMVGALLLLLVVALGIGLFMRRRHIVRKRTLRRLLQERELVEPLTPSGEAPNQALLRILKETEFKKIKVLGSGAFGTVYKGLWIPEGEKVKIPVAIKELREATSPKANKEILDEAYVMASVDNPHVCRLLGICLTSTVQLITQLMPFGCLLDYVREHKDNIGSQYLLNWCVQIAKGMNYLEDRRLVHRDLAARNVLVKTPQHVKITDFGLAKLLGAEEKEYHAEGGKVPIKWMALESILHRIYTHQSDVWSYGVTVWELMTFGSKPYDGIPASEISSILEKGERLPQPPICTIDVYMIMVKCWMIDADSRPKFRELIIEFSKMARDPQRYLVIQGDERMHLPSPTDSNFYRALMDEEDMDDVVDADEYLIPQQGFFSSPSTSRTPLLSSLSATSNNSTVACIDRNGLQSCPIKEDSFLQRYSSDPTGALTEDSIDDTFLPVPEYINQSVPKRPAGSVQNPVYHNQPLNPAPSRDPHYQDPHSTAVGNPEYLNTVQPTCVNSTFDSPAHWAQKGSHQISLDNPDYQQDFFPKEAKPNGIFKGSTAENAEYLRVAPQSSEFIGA
For the next data set, the target named is Cytochrome P450 2D6 (Homo sapiens, UniProt P10635). The note with it: bti-tn-5b1-4. Also: in other assays of this panel Not Active means under 50% inhibition at 10 µM.
Sequence of Cytochrome P450 2D6 (P10635 whole entry): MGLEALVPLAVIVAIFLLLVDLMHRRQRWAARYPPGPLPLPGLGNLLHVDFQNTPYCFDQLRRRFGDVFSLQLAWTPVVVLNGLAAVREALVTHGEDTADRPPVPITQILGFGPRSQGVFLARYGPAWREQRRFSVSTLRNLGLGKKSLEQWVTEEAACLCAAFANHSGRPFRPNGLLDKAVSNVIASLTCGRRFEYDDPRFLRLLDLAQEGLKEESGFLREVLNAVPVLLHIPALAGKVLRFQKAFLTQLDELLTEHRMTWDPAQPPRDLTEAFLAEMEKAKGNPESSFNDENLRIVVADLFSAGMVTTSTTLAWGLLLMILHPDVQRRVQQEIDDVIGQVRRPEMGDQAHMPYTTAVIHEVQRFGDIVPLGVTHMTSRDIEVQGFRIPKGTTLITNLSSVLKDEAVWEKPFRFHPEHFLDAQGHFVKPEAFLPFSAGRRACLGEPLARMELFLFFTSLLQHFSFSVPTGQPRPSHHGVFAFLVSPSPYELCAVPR

With `COc1cc(/C=C/C(=O)O)ccc1O` [FERULATE], the IC50 result (in data set [1]; in data set [2]; in data set [3]; at Interstitial collagenase; in data set [4]; against Cytochrome P450 2D6) was “Not Active” throughout. The inhibition constant Ki entry (in data set [1]; in data set [2]; in data set [3]; on Cytochrome P450 2D6) was “Not Active” in each case.

Regarding `CC(C)(C#N)c1cc(Cn2cncn2)cc(C(C)(C)C#N)c1` [ANASTROZOLE], the IC50 entry (in data set [1]; in data set [2]; in data set [3]; at Interstitial collagenase; in data set [4]; against Cytochrome P450 2D6) was “Not Active” in each case. Besides, the Ki entry (in data set [1]; in data set [2]; in data set [3]; on Cytochrome P450 2D6) was “Not Active” throughout.

Turning to `COc1ccc(Cl)cc1C(=O)NCCc1ccc(S(=O)(=O)NC(=O)NC2CCCCC2)cc1` [GLYBURIDE], the IC50 entry (in data set [1]; in data set [2]; in data set [3]; against Interstitial collagenase; in data set [4]; on Cytochrome P450 2D6) was “Not Active” throughout. Also, the Ki entry (in data set [1]; in data set [2]; in data set [3]; at Cytochrome P450 2D6) was “Not Active” in each case.

`CC(C)NCC(O)COc1ccc(CC(N)=O)cc1` (stereo not given) [ATENOLOL]: the IC50 entry (in data set [1]; in data set [2]; in data set [3]; against Interstitial collagenase; in data set [4]) was “Not Active” throughout. The Ki entry in data set [1], in data set [2] and in data set [3] was “Not Active” each time.

Regarding `O=C(O)COC(=O)Cc1ccccc1Nc1c(Cl)cccc1Cl` [ACECLOFENAC], the IC50 result (in data set [1]; in data set [2]; in data set [3]; against Interstitial collagenase; in data set [4]; against Cytochrome P450 2D6) was “Not Active” each time. Moreover, the Ki entry (in data set [1]; in data set [2]; in data set [3]; at Cytochrome P450 2D6) was “Not Active” throughout.

Consider `Cl.NC[C@H]1CC[C@H](C(=O)Oc2ccc(CCC(=O)O)cc2)CC1` [CETRAXATE HYDROCHLORIDE], for which the IC50 entry (in data set [1]; in data set [2]; in data set [3]; on Interstitial collagenase; in data set [4]; on Cytochrome P450 2D6) was “Not Active” in each case. In addition, the Ki result (in data set [1]; in data set [2]; in data set [3]; on Cytochrome P450 2D6) was “Not Active” each time.

Turning to `CC(=O)[C@]1(O)Cc2c(O)c3c(c(O)c2[C@@H](O[C@H]2C[C@H](N)[C@H](O)[C@H](C)O2)C1)C(=O)c1ccccc1C3=O` [IDARUBICIN], the IC50 entry (in data set [1]; in data set [2]; in data set [3]; against Interstitial collagenase; in data set [4]; on Cytochrome P450 2D6) was “Not Active” each time. For the same compound, the Ki result (in data set [1]; in data set [2]; in data set [3]; at Cytochrome P450 2D6) was “Not Active” throughout.

As for `C[C@@H]1[C@H](O)[C@@H](C)/C=C/C=C/C=C/C=C/C=C/C=C/C=C/[C@H](O[C@@H]2O[C@H](C)[C@@H](O)[C@H](N)[C@@H]2O)C[C@@H]2O[C@](O)(C[C@@H](O)C[C@@H](O)[C@H](O)CC[C@@H](O)C[C@@H](O)CC(=O)O[C@H]1C)C[C@H](O)[C@H]2C(=O)O` [AMPHOTERICIN B], the IC50 result (in data set [1]; in data set [2]; in data set [3]; on Interstitial collagenase; in data set [4]; against Cytochrome P450 2D6) was “Not Active” each time. Further, the inhibition constant (Ki) entry (in data set [1]; in data set [2]; in data set [3]; on Cytochrome P450 2D6) was “Not Active” in each case.

Take `O=C(O)c1ccccc1` [BENZOIC ACID]: the IC50 entry (in data set [1]; in data set [2]; in data set [3]; at Interstitial collagenase; in data set [4]; against Cytochrome P450 2D6) was “Not Active” throughout. Further, the inhibitory constant (Ki) entry (in data set [1]; in data set [2]; in data set [3]; at Cytochrome P450 2D6) was “Not Active” each time.

On to `C[C@]12CC[C@@H](O)C[C@@H]1CC[C@@H]1[C@@H]2CC[C@]2(C)C(=O)CC[C@@H]12` [ANDROSTERONE], for which the IC50 entry (in data set [1]; in data set [2]; in data set [3]; at Interstitial collagenase; in data set [4]; against Cytochrome P450 2D6) was “Not Active” each time. Further, the Ki result (in data set [1]; in data set [2]; in data set [3]; on Cytochrome P450 2D6) was “Not Active” in each case.

Consider `NCC(CC(=O)O)c1ccc(Cl)cc1` (stereo not given) [BACLOFEN], for which the IC50 result (in data set [1]; in data set [2]; in data set [3]; against Interstitial collagenase; in data set [4]; against Cytochrome P450 2D6) was “Not Active” each time. In addition, the inhibitory constant (Ki) entry (in data set [1]; in data set [2]; in data set [3]; on Cytochrome P450 2D6) was “Not Active” throughout.

For the compound `CCCCCCNC(=O)n1cc(F)c(=O)[nH]c1=O` [CARMOFUR], the 50% inhibitory concentration (IC50) entry (in data set [1]; in data set [2]; in data set [3]; at Interstitial collagenase; in data set [4]) was “Not Active” in each case. Further, the Ki entry in data set [1], in data set [2] and in data set [3] was “Not Active” in each case.

For `O=C(O)CNCP(=O)(O)O` [GLYPHOSATE], the IC50 entry (in data set [1]; in data set [2]; in data set [3]; on Interstitial collagenase; in data set [4]) was “Not Active” in each case. For the same compound, the inhibition constant Ki entry in data set [1], in data set [2] and in data set [3] was “Not Active” each time.

For the compound `C[C@H]1C[C@H]2[C@@H]3CCC4=CC(=O)C=C[C@]4(C)[C@@]3(F)[C@@H](O)C[C@]2(C)[C@@]1(O)C(=O)CO` [BETAMETHASONE], the concentration for half-maximal inhibition (IC50) entry (in data set [1]; in data set [2]; in data set [3]; on Interstitial collagenase; in data set [4]) was “Not Active” throughout. In addition, the inhibitory constant (Ki) result in data set [1], in data set [2] and in data set [3] was “Not Active” each time.

For the compound `CC(N)Cc1c[nH]c2ccc(OCc3cccs3)cc12` (stereo not given) [BW-723C86], the IC50 entry (in data set [1]; in data set [2]; in data set [3]; on Interstitial collagenase; in data set [4]) was “Not Active” in each case. Further, the Ki entry in data set [1], in data set [2] and in data set [3] was “Not Active” throughout.

For the compound `CN(Cc1cc(Br)cc(Br)c1N)C1CCCCC1` [BROMHEXINE], the 50% inhibitory concentration (IC50) was 59 nM in data set [1] (read-out: IC50); “Not Active” in data set [2]; “Not Active” in data set [3]; “Not Active” against Interstitial collagenase; “Not Active” in data set [4]. Also, the Ki in data set [1] (read-out: Ki) was 36 nM; in data set [2], “Not Active”; in data set [3] it was “Not Active”.

`c1ccc(Cn2ccnc2)cc1`: the IC50 result (in data set [1]; in data set [2]; in data set [3]; against Interstitial collagenase; in data set [4]) was “Not Active” each time. Also, the inhibition constant Ki result in data set [1], in data set [2] and in data set [3] was “Not Active” throughout.

On to `Cc1cc(C(C)(C)C)c(O)c(C)c1CC1=NCCN1` [OXYMETAZOLINE], for which the IC50 result in data set [1] is “Not Active”; in data set [2] (read-out: IC50) it was 27 nM; in data set [3], “Not Active”; on Interstitial collagenase, “Not Active”; in data set [4], “Not Active”. Besides, the inhibition constant (Ki) entry in data set [1] is “Not Active”; in data set [2] (read-out: Ki), 18 nM; in data set [3], “Not Active”.

For `CCN(CCO)CCCC(C)Nc1ccnc2cc(Cl)ccc12` (stereo not given) [HYDROXYCHLOROQUINE], the IC50 entry in data set [1] is “Not Active”; in data set [2] (read-out: IC50), 479 nM; in data set [3] it was “Not Active”; against Interstitial collagenase, “Not Active”; in data set [4] it was “Not Active”. For the same compound, the Ki entry was “Not Active” in data set [1], 319 nM in data set [2] (read-out: Ki) and “Not Active” in data set [3].

In the case of `NS(=O)(=O)c1cc(C(=O)O)c(NCc2ccco2)cc1Cl` [FUROSEMIDE], the concentration for half-maximal inhibition (IC50) entry (in data set [1]; in data set [2]; in data set [3]; against Interstitial collagenase; in data set [4]) was “Not Active” each time. Besides, the Ki result in data set [1], in data set [2] and in data set [3] was “Not Active” each time.
